Where two headings read alike, the source gives them in different places. Values belong to the compound of their own block, whether it stands above or below them.
Legend:
PKG = conditions: read-out: Ki against other kinases: PKG; printed as PKG/PKC; cited from earlier work
FLC2 PDX cells = assay: Validation screen, 11-point dose response, 72 h, Cell Titer Glo; type: cell-based, human; conditions: read-out: EC50 FLC
PKA = conditions: read-out: Ki PKA; cited from earlier work
FLC5 PDX cells = assay: Validation screen, 11-point dose response, 72 h, Cell Titer Glo; type: cell-based, human; conditions: read-out: EC50 FLC
[1] = tested on: primary human hepatocytes (PHH); assay: Validation counter-screen on primary human hepatocytes; conditions: read-out: EC50 PHH, 72 h
FLC4 PDX cells = assay: Validation screen, 11-point dose response, 72 h, Cell Titer Glo; type: cell-based, human; conditions: read-out: EC50 FLC
FLC3 PDX cells = assay: as above; type: cell-based, human; conditions: read-out: EC50 FLC
PKC = conditions: read-out: Ki against other kinases: PKC; printed as PKG/PKC; cited from earlier work
FLC1 PDX cells = assay: Validation screen, 11-point dose response, 72 h, Cell Titer Glo; type: cell-based, human; conditions: read-out: EC50 FLC
GSK-3β = conditions: read-out: Ki against other kinases: GSK-3β; cited from earlier work
FLC PDX cells = assay: Validation screen on cells dissociated from FLC PDX; type: cell-based, human
PKCδ = conditions: read-out: Ki against other kinases: PKCδ; cited from earlier work
RSK2 = conditions: read-out: Ki against other kinases: RSK2; cited from earlier work
ERK2 = conditions: read-out: Ki against other kinases: ERK2; cited from earlier work
FLC PDX = assay: In vivo drug testing of HDAC inhibitors in mice bearing PDX
FLC1 PDX = assay: In vivo drug testing in mice bearing PDX FLC1; conditions: 2 days, FLC1
[2] = tested on: cells dissociated directly from patient tumors (FLC.T6-T11); assay: Direct from patient in vitro screening; type: cell-based, human; conditions: for Drug sensitivity of FLC.T6 compared with derived PDX FLC6 (EC50): cells direct from patient tumor vs cells from its PDX
FLC5 PDX = assay: In vivo drug testing in mice bearing PDX FLC5; conditions: panobinostat 2.5mg/kg combined with navitoclax 50 mg/kg
FLC1 cells = assay: Role of ROS: survival with or without N-acetyl cysteine 10mM; type: cell-based, human; conditions: NAC 10mM, 72 h
Akt2 = conditions: read-out: Ki against other kinases: Akt2; cited from earlier work
Akt3 = conditions: read-out: Ki against other kinases: Akt3; cited from earlier work
FLC5 cells = assay: Anchor screen, synergy assay; type: cell-based, human; conditions: FLC5, ZIP, Bliss and HSA scores
p70s6k = conditions: read-out: Ki against other kinases: p70s6k; cited from earlier work
Akt1 = conditions: read-out: Ki against other kinases: Akt1; cited from earlier work
Rock1 = conditions: read-out: Ki against other kinases: Rock1; cited from earlier work
Rock2 = conditions: read-out: Ki against other kinases: Rock2; cited from earlier work

Compound: CCCCCCOC(=O)[C@]1(O)C[C@@H]2O[C@@]1(C)n1c3ccccc3c3c4c(c5c6ccccc6n2c5c31)C(=O)NC4 [KT5720]
Ki (PKG): > 2000 nM | EC50 (FLC2 PDX cells; FLC2, 72 h): 2140 nM | Ki (PKA): 60 nM | EC50 (FLC5 PDX cells; FLC5, 72 h): 3870 nM | EC50 [1]: > 10000 nM | EC50 (FLC4 PDX cells; FLC4, 72 h): 1480 nM | EC50 (FLC3 PDX cells; FLC3, 72 h): 2710 nM | Ki (PKC): > 2000 nM | EC50 (FLC1 PDX cells; FLC1, 72 h): 1610 nM

Compound: Cc1[nH]nc2ccc(-c3cncc(OC[C@@H](N)Cc4ccccc4)c3)cc12 [A-674563]
EC50 (FLC2 PDX cells; FLC2, 72 h): 700 nM | Ki (GSK-3β): 110 nM | Ki (PKA): 16 nM | Therapeutic window for FLC over PHH (FLC PDX cells; FLC PDX cells compared with PHH): no therapeutic window | Ki (PKCδ): 360 nM | EC50 (FLC4 PDX cells; FLC4, 72 h): 160 nM | EC50 (FLC3 PDX cells; FLC3, 72 h): 880 nM | Ki (RSK2): 580 nM | Ki (ERK2): 260 nM | EC50 (FLC1 PDX cells; FLC1, 72 h): 340 nM

Average weight loss (FLC PDX; 10mg/kg IP, 14 days): 11% | Drug sensitivity of FLC.T6 compared with derived PDX FLC6 (EC50) [2]: correlated well
Compound: Cc1[nH]c2ccccc2c1CCNCc1ccc(/C=C/C(=O)NO)cc1 [panobinostat]
Tumor growth at 7 days (FLC PDX; 10mg/kg IP): −7% | Tumor growth at 14 days (FLC PDX; 10mg/kg IP): 4% | Tumor volume:mouse weight (FLC PDX; 10mg/kg IP, 14 days): stable or decreased | Apoptosis as assayed by TUNEL (FLC PDX; 10mg/kg, after 14 days): no increase in apoptosis | Mitotic figures, Ki67 and pHH3 positive cells in tumors (FLC PDX; 10mg/kg, after 14 days): dramatic decrease | Apoptosis (TUNEL), panobinostat alone compared to vehicle (FLC1 PDX; panobinostat 10mg/kg alone): no evidence of increased apoptosis | Apoptotic cells (TUNEL) with combined treatment (FLC1 PDX; panobinostat 10mg/kg combined with A1331852 25mg/kg): many apoptotic cells | Efficacy ranking in the screen (FLC PDX cells; ranked by average −log10EC50 for FLC1-5 minus −log10EC50 for PHH): 103 | Sensitivity of cells tested directly from patients ([2]; 10μM-10nM, 72h, Cell Titer Glo): sensitive | Tumor response with combined treatment (FLC5 PDX): partial response | Effect of N-acetyl cysteine (NAC) on the toxicity of the drug (FLC1 cells): mildly attenuated

Compound: NC[C@@](O)(c1ccc(Cl)cc1)c1ccc(-c2cn[nH]c2)cc1 [AT13148]
Ki (Akt2): 402 nM | Ki (Akt3): 50 nM | EC50 (FLC2 PDX cells; Homo sapiens, 72 h): 6140 nM | Ki (PKA): 3 nM | Synergy with A1331852 (FLC5 cells): some synergy | EC50 (FLC5 PDX cells; Homo sapiens, 72 h): 96 nM | Ki (p70s6k): 8 nM | EC50 ([1]; Homo sapiens, Hepatocyte): 4050 nM | Drug sensitivity of FLC.T6 compared with derived PDX FLC6 (EC50) [2]: outliers | EC50 (FLC4 PDX cells; Homo sapiens, 72 h): 4290 nM | Ki (Akt1): 38 nM | Ki (Rock1): 6 nM | EC50 (FLC3 PDX cells; Homo sapiens, 72 h): 590 nM | Ki (Rock2): 4 nM | EC50 (FLC1 PDX cells; Homo sapiens, 72 h): 39 nM

— PMC8734228 (Cancer discovery, 2021)
